pEC50: −log10 of the molar value.
tested on: HCV replicon cells; assay: Cell-based HCV replicon assay (replicon RNA by Taqman real time PCR); conditions: HCV replicon 1b, cells harvested on day 3; read-out: 1b EC50

Compound | pEC50
CCOc1nc(N)nc2c1ncn2[C@@H]1O[C@@H]2COP(=O)(OC3CCC3)O[C@H]2[C@@]1(C)N=[N+]=[N-] (single isomer, unassigned) [Compound 101] | 7.00
COc1nc(N)nc2c1ncn2[C@@H]1O[C@@H]2COP(=O)(OC3CCC3)O[C@H]2[C@@]1(C)N=[N+]=[N-] (single isomer, unassigned) [Compound 104] | 4.96
CCOc1nc(N)nc2c1ncn2[C@@H]1O[C@@H]2COP(=O)(OC3CCC3)O[C@H]2[C@@]1(C)N=[N+]=[N-] (single isomer, unassigned) [Compound 107] | 4.73
CCOc1nc(N)nc2c1ncn2[C@@H]1O[C@@H]2COP(=O)(OC3CCC3)O[C@H]2[C@@]1(C)N=[N+]=[N-] (single isomer, unassigned) [Compound 108] | 4.62

same assay, conditions: Hepatitis C virus, 72 h, HCV replicon 1b, cells harvested on day 3; read-out: 1b EC50

Compound | pEC50
COc1nc(N)nc2c1ncn2[C@@H]1O[C@@H]2COP(=O)(OC3CCC3)O[C@H]2[C@@]1(C)N=[N+]=[N-] (single isomer, unassigned) [Compound 102] | 4.96

same assay, conditions: Hepatitis C virus, 72 h, read-out: 1b EC50

Compound | pEC50
CCOc1nc(N)nc2c1ncn2[C@@H]1O[C@H](COP(=O)(N[C@@H](C)C(=O)OC)Oc2ccccc2)[C@@H](O)[C@@]1(C)N=[N+]=[N-] (single isomer, unassigned) [Compound 142] | 6.30
CCCOC(=O)[C@H](C)NP(=O)(OC[C@H]1O[C@@H](n2ccc(=O)[nH]c2=O)[C@](C)(N=[N+]=[N-])[C@@H]1O)Oc1ccccc1 (single isomer, unassigned) [Compound 147] | 5.25
CCCCOC(=O)[C@H](C)NP(=O)(OC[C@H]1O[C@@H](n2ccc(=O)[nH]c2=O)[C@](C)(N=[N+]=[N-])[C@@H]1O)Oc1cccc2ccccc12 (single isomer, unassigned) [Compound 155] | 5.66
CC(C)OC(=O)[C@H](C)NP(=O)(OC[C@H]1O[C@@H](n2ccc(=O)[nH]c2=O)[C@](C)(N=[N+]=[N-])[C@@H]1O)Oc1ccccc1 (single isomer, unassigned) [Compound 157] | 4.31
COC(=O)[C@H](C)NP(=O)(OC[C@H]1O[C@@H](n2ccc(=O)[nH]c2=O)[C@](C)(N=[N+]=[N-])[C@@H]1O)Oc1ccccc1 (single isomer, unassigned) [Compound 158] | 5.05
CCCOC(=O)[C@H](C)NP(=O)(OC[C@H]1O[C@@H](n2cnc3c(OCC)nc(N)nc32)[C@](C)(N=[N+]=[N-])[C@@H]1O)Oc1ccccc1 (single isomer, unassigned) [Compound 163] | 5.96
CCCCOC(=O)[C@H](C)NP(=O)(OC[C@H]1O[C@@H](n2cnc3c(OCC)nc(N)nc32)[C@](C)(N=[N+]=[N-])[C@@H]1O)Oc1ccccc1 (single isomer, unassigned) [Compound 167] | 5.92
CCCCOC(=O)[C@H](C)NP(=O)(OC[C@H]1O[C@@H](n2cnc3c(OCC)nc(N)nc32)[C@](C)(N=[N+]=[N-])[C@@H]1O)Oc1cccc2ccccc12 (single isomer, unassigned) [Compound 171] | 6.30
CCOc1nc(N)nc2c1ncn2[C@@H]1O[C@H](COP(=O)(N[C@@H](C)C(=O)OC)Oc2ccc(F)cc2)[C@@H](O)[C@@]1(C)N=[N+]=[N-] (single isomer, unassigned) [Compound 173] | 6.22
CCOC(=O)[C@H](C)NP(=O)(OC[C@H]1O[C@@H](n2cnc3c(OCC)nc(N)nc32)[C@](C)(N=[N+]=[N-])[C@@H]1O)Oc1ccc(F)cc1 (single isomer, unassigned) [Compound 175] | 6.40
COC(=O)[C@H](C)NP(=O)(OC[C@H]1O[C@@H](n2ccc(N)nc2=O)[C@](C)(N=[N+]=[N-])[C@@H]1O)Oc1ccc(Cl)cc1 (single isomer, unassigned) [Compound 185] | 5.54
C[C@H](NP(=O)(OC[C@H]1O[C@@H](n2ccc(N)nc2=O)[C@](C)(N=[N+]=[N-])[C@@H]1O)Oc1ccccc1)C(=O)OCc1ccccc1 (single isomer, unassigned) [Compound 191] | 4.60

same assay, conditions: read-out: 1b EC50

Compound | pEC50
CCOc1nc(N)nc2c1ncn2[C@@H]1O[C@H](COP(=O)(N[C@@H](C)C(=O)OC)Oc2ccccc2)[C@@H](O)[C@@]1(C)N=[N+]=[N-] (single isomer, unassigned) [Compound 143] | 6.22
CCOC(=O)[C@H](C)NP(=O)(OC[C@H]1O[C@@H](n2ccc(=O)[nH]c2=O)[C@](C)(N=[N+]=[N-])[C@@H]1O)Oc1ccccc1 (single isomer, unassigned) [Compound 151] | 5.29
CCOC(=O)[C@H](C)NP(=O)(OC[C@H]1O[C@@H](n2ccc(=O)[nH]c2=O)[C@](C)(N=[N+]=[N-])[C@@H]1O)Oc1ccccc1 (single isomer, unassigned) [Compound 152] | 6.30
C[C@H](NP(=O)(OC[C@H]1O[C@@H](n2ccc(=O)[nH]c2=O)[C@](C)(N=[N+]=[N-])[C@@H]1O)Oc1ccccc1)C(=O)OCC(C)(C)C (single isomer, unassigned) [Compound 153] | 4.72
C[C@H](NP(=O)(OC[C@H]1O[C@@H](n2ccc(=O)[nH]c2=O)[C@](C)(N=[N+]=[N-])[C@@H]1O)Oc1ccccc1)C(=O)OCC(C)(C)C (single isomer, unassigned) [Compound 154] | 6.15
CCCCOC(=O)[C@H](C)NP(=O)(OC[C@H]1O[C@@H](n2ccc(=O)[nH]c2=O)[C@](C)(N=[N+]=[N-])[C@@H]1O)Oc1cccc2ccccc12 (single isomer, unassigned) [Compound 156] | 5.82
COC(=O)[C@H](C)NP(=O)(OC[C@H]1O[C@@H](n2ccc(=O)[nH]c2=O)[C@](C)(N=[N+]=[N-])[C@@H]1O)Oc1ccccc1 (single isomer, unassigned) [Compound 159] | 5.21
CCOc1nc(N)nc2c1ncn2[C@@H]1O[C@H](COP(=O)(N[C@@H](C)C(=O)OCC(C)(C)C)Oc2ccccc2)[C@@H](O)[C@@]1(C)N=[N+]=[N-] (single isomer, unassigned) [Compound 160] | 5.17
CCOc1nc(N)nc2c1ncn2[C@@H]1O[C@H](COP(=O)(N[C@@H](C)C(=O)OCC(C)(C)C)Oc2ccccc2)[C@@H](O)[C@@]1(C)N=[N+]=[N-] (single isomer, unassigned) [Compound 161] | 5.77
CCCOC(=O)[C@H](C)NP(=O)(OC[C@H]1O[C@@H](n2cnc3c(OCC)nc(N)nc32)[C@](C)(N=[N+]=[N-])[C@@H]1O)Oc1ccccc1 (single isomer, unassigned) [Compound 164] | 6.00
CCOc1nc(N)nc2c1ncn2[C@@H]1O[C@H](COP(=O)(N[C@@H](C)C(=O)OC(C)C)Oc2ccccc2)[C@@H](O)[C@@]1(C)N=[N+]=[N-] (single isomer, unassigned) [Compound 165] | 5.21
CCOc1nc(N)nc2c1ncn2[C@@H]1O[C@H](COP(=O)(N[C@@H](C)C(=O)OC(C)C)Oc2ccccc2)[C@@H](O)[C@@]1(C)N=[N+]=[N-] (single isomer, unassigned) [Compound 166] | 6.10
CCCCOC(=O)[C@H](C)NP(=O)(OC[C@H]1O[C@@H](n2cnc3c(OCC)nc(N)nc32)[C@](C)(N=[N+]=[N-])[C@@H]1O)Oc1ccccc1 (single isomer, unassigned) [Compound 168] | 5.82
CCCCOC(=O)[C@H](C)NP(=O)(OC[C@H]1O[C@@H](n2ccc(=O)[nH]c2=O)[C@](C)(N=[N+]=[N-])[C@@H]1O)Oc1ccccc1 (single isomer, unassigned) [Compound 169] | 5.46
CCCCOC(=O)[C@H](C)NP(=O)(OC[C@H]1O[C@@H](n2ccc(=O)[nH]c2=O)[C@](C)(N=[N+]=[N-])[C@@H]1O)Oc1ccccc1 (single isomer, unassigned) [Compound 170] | 5.82
CCCCOC(=O)[C@H](C)NP(=O)(OC[C@H]1O[C@@H](n2cnc3c(OCC)nc(N)nc32)[C@](C)(N=[N+]=[N-])[C@@H]1O)Oc1cccc2ccccc12 (single isomer, unassigned) [Compound 172] | 6.40
CCOc1nc(N)nc2c1ncn2[C@@H]1O[C@H](COP(=O)(N[C@@H](C)C(=O)OC)Oc2ccc(F)cc2)[C@@H](O)[C@@]1(C)N=[N+]=[N-] (single isomer, unassigned) [Compound 174] | 6.30
CCOC(=O)[C@H](C)NP(=O)(OC[C@H]1O[C@@H](n2cnc3c(OCC)nc(N)nc32)[C@](C)(N=[N+]=[N-])[C@@H]1O)Oc1ccc(F)cc1 (single isomer, unassigned) [Compound 176] | 6.52
C[C@H](NP(=O)(OC[C@H]1O[C@@H](n2ccc(N)nc2=O)[C@](C)(N=[N+]=[N-])[C@@H]1O)Oc1ccccc1Cl)C(=O)OCC(C)(C)C (single isomer, unassigned) [Compound 181] | 5.42
C[C@H](NP(=O)(OC[C@H]1O[C@@H](n2ccc(N)nc2=O)[C@](C)(N=[N+]=[N-])[C@@H]1O)Oc1ccccc1Cl)C(=O)OCC(C)(C)C (single isomer, unassigned) [Compound 182] | 4.92
COC(=O)[C@H](C)NP(=O)(OC[C@H]1O[C@@H](n2ccc(N)nc2=O)[C@](C)(N=[N+]=[N-])[C@@H]1O)Oc1ccc(Cl)cc1 (single isomer, unassigned) [Compound 186] | 5.70
COC(=O)[C@H](C)NP(=O)(OC[C@H]1O[C@@H](n2ccc(N)nc2=O)[C@](C)(N=[N+]=[N-])[C@@H]1O)Oc1ccc(F)cc1 (single isomer, unassigned) [Compound 187] | 4.66
COC(=O)[C@H](C)NP(=O)(OC[C@H]1O[C@@H](n2ccc(N)nc2=O)[C@](C)(N=[N+]=[N-])[C@@H]1O)Oc1ccc(F)cc1 (single isomer, unassigned) [Compound 188] | 5.25
CCOC(=O)[C@H](C)NP(=O)(OC[C@H]1O[C@@H](n2ccc(N)nc2=O)[C@](C)(N=[N+]=[N-])[C@@H]1O)Oc1ccc(Cl)cc1 (single isomer, unassigned) [Compound 189] | 4.66
CCOC(=O)[C@H](C)NP(=O)(OC[C@H]1O[C@@H](n2ccc(N)nc2=O)[C@](C)(N=[N+]=[N-])[C@@H]1O)Oc1ccc(Cl)cc1 (single isomer, unassigned) [Compound 190] | 5.25
C[C@H](NP(=O)(OC[C@H]1O[C@@H](n2ccc(N)nc2=O)[C@](C)(N=[N+]=[N-])[C@@H]1O)Oc1ccccc1)C(=O)OCc1ccccc1 (single isomer, unassigned) [Compound 192] | 4.72

Reference: patent publication US9156872B2, “2′-azido substituted nucleoside derivatives and methods of use thereof for the treatment of viral diseases” (priority 2011, dated 2015)
